Data on eleven compounds can be found in ChEMBL document CHEMBL1201862, “PubChem BioAssay data set” (2004).

Test [1] deals with T1, High affinity choline transporter 1 (Homo sapiens, UniProt Q9GZV3).
T1 sequence (Q9GZV3 whole entry): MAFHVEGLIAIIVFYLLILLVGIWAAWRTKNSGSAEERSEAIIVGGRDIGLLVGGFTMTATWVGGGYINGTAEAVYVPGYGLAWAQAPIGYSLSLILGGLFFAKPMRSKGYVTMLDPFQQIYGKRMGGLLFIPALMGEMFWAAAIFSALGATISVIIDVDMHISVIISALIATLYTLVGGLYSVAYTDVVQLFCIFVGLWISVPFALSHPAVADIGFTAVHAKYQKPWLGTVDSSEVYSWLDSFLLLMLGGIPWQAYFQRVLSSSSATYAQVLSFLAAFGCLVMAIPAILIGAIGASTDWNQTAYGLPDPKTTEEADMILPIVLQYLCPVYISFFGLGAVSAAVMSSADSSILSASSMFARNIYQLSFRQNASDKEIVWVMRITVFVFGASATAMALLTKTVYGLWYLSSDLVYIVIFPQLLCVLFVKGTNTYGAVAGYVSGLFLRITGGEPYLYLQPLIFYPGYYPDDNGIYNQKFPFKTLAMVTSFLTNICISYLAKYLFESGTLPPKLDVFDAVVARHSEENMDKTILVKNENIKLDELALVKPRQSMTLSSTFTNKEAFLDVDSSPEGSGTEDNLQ
Kind of test: human choline transporter blockers, potency – cell-based, 5-point CRC, membrane potential dye, dose response (AID 504840). It counts as functional.

Test [2] addresses T2, Lysosomal acid glucosylceramidase (Homo sapiens, UniProt P04062).
T2 sequence (P04062 whole entry): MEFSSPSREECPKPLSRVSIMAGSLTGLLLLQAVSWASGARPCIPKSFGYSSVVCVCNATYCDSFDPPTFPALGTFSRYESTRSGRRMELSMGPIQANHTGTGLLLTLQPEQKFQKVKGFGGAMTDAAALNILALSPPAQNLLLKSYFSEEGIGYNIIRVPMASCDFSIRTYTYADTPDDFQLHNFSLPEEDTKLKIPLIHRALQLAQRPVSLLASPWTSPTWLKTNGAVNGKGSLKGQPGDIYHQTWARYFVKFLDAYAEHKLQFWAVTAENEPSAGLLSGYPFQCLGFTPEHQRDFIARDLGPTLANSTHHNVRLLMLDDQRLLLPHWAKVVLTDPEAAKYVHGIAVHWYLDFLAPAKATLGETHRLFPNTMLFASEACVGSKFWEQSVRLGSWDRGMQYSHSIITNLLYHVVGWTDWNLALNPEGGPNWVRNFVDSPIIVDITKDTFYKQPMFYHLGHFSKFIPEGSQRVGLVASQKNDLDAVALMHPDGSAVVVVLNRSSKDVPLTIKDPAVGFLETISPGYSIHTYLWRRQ
The test can be described thus: Dose response cell-based high throughput screening assay to identify enhancers of beta-glucosidase activity. [Related pubchem assays: 784 ]. In kind it is functional.

Test [3] deals with T3, Replicative DNA helicase DnaB (Mycobacterium tuberculosis, UniProt P9WMR3).
T3 sequence (P9WMR3 whole entry): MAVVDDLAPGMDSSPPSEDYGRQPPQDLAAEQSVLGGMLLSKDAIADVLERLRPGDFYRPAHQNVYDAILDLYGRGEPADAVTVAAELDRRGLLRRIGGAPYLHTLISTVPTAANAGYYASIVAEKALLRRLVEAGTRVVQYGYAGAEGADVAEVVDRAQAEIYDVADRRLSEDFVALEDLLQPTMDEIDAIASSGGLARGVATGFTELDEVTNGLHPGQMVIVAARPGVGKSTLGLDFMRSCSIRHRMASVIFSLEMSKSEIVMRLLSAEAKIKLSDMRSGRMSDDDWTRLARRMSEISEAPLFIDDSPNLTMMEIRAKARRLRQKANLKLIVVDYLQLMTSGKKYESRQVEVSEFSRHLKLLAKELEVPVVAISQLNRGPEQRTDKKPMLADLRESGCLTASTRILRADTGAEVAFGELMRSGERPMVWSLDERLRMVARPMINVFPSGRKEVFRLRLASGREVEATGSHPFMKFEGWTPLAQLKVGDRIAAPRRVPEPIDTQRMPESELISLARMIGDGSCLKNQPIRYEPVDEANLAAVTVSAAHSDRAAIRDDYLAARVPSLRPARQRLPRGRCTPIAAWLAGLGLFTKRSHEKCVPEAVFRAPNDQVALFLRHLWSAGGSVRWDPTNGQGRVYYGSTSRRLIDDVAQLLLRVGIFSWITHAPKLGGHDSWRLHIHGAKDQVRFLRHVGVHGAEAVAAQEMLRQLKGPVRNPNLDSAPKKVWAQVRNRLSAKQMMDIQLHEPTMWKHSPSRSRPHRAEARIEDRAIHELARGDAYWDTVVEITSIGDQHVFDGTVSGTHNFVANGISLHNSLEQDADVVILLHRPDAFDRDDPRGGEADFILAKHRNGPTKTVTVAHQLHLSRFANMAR
Kind of test: DnaB intein splicing inhibitors, dose response, biochemical, cell-free fluorescence (AID 449749). In kind it is functional.

For another test, the target named is T4, Protein RecA (Mycobacterium tuberculosis, UniProt P9WHJ3).
T4 sequence (P9WHJ3 whole entry): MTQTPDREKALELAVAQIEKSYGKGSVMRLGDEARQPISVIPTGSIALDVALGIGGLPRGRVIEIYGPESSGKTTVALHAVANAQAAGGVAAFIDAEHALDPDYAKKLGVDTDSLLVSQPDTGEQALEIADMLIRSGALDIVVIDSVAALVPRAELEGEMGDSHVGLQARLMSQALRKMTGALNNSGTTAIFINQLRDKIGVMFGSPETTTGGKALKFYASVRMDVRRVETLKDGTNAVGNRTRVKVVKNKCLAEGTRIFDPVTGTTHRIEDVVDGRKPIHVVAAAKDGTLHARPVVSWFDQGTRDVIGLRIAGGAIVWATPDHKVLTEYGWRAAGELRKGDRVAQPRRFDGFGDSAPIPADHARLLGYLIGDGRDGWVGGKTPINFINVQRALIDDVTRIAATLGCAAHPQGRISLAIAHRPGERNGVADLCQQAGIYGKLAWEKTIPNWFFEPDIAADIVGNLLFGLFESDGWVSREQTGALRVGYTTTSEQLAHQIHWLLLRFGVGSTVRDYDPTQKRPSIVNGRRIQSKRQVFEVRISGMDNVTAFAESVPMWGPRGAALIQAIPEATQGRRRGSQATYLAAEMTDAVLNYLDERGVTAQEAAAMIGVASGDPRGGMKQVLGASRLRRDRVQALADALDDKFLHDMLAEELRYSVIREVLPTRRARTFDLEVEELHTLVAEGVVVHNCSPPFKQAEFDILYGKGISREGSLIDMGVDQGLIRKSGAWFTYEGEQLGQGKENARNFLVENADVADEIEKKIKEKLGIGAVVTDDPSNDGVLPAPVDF
The test can be described thus: Fluorescence Cell-Free Homogeneous Dose Retest to Identify Inhibitors of RecA-Intein Splicing Activity. [Related pubchem assays (depositor defined):AID2097, AID2223, AID489010, AID492950]. It counts as functional.

For test [4], the target named is T5, Microphthalmia-associated transcription factor (Homo sapiens, UniProt O75030).
T5 sequence (O75030 whole entry): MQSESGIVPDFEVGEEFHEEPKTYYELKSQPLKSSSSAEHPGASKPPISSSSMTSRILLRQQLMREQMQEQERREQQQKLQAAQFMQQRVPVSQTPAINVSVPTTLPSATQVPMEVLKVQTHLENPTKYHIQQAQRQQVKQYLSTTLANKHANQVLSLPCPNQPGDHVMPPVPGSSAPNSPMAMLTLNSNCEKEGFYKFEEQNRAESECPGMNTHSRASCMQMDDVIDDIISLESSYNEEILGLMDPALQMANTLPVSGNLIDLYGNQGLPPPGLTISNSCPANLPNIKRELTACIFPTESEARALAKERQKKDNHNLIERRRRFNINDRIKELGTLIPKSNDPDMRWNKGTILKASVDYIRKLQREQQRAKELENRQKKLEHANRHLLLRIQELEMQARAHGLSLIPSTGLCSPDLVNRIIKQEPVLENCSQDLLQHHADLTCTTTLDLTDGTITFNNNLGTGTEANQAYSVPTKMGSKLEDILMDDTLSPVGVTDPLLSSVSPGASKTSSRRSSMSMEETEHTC
Kind of test: reducers of TRPM1 reporter luminescence, concentration series – cell-based, SK-MEL-5, cherry-picked, set 3, MITF inhibitor project, dose response (AID 493073).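 Further: SK-MEL-5 melanoma cells with luciferase driven by the MITF target TRPM1 promoter.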 In kind it is functional.

Test [5] has as its target T6, Short transient receptor potential channel 4 (Mus musculus, UniProt Q9QUQ5).
T6 sequence (Q9QUQ5 whole entry): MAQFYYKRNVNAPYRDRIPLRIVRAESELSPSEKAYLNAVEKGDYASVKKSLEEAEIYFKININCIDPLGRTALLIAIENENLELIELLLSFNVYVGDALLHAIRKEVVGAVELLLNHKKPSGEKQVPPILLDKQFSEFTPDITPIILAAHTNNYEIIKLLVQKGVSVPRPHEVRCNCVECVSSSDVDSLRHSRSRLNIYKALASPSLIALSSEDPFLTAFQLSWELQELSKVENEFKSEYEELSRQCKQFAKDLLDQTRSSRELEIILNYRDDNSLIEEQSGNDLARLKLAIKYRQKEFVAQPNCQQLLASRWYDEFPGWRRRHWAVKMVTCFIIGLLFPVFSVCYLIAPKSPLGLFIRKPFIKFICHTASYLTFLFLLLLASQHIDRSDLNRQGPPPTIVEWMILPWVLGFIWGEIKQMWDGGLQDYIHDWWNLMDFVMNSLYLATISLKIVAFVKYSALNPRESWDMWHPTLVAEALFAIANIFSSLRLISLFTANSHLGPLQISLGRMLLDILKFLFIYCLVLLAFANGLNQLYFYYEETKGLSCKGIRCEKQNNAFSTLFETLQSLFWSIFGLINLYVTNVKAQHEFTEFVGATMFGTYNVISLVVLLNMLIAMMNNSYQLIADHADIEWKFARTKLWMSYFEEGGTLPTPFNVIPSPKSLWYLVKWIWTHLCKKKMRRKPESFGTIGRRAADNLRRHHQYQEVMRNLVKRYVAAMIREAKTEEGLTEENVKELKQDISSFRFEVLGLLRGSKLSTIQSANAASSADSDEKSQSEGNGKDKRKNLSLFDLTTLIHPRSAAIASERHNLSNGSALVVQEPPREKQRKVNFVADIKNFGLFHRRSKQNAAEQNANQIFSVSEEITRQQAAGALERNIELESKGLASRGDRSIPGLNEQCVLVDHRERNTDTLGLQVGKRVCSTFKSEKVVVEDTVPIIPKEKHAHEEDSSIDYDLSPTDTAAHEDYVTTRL
Kind of test: calcium entry via TRPC4 opening agents – cell-based, HEK293 TRPC4/mu-opioid, Fluo-4 calcium, dose response (AID 434937). It counts as functional.

Test [6] deals with Vero. The test can be described thus: cells. It counts as functional. The following applies: Chlorocebus sabaeus.
The test system of test [7] is Streptococcus sp. 'group A'. Kind of test: Streptococcus pyogenes SK(-)GAS viability under kanamycin – luminescence, BacTiterGlo, confirmation, counter-screen for streptokinase expression inhibitor project, dose response (AID 1900). In kind it is functional, organism-based. (In general: The purpose of a counterscreen is to sort out artefacts and off-target activity.)

Another test has as its system Streptococcus. The test can be described thus: GAS UMAA2166 growth inhibition – luminescence, BacTiterGlo, counter-screen for streptokinase expression inhibitor project, dose response (AID 1915).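 Further: potency for reduction of bacterial viability or growth.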 In kind it is functional, organism-based.
Test [8] has as its system Vero. Kind of test: cells. It counts as functional, cell-based. The following applies: Chlorocebus sabaeus.

Active and inactive are the calls of the source.

The IC50 is the concentration that gives 50% inhibition. With `Cc1oc(-c2ccccc2)cc1C(=O)Nc1cccc(/C=C\C(=O)O)c1`, the IC50 in [1] is 11.2 µM (active).
On the same count and under the same terms, as for `N=C(N)Nc1nc(C2COc3ccccc3O2)cs1` (configuration not stated), the figure is 12.6 µM (active).
By EC50 is commonly meant the concentration needed to bring the measured effect to its halfway point. On to `CCn1c(CCNC(=O)c2ccc(Cl)cc2)nnc1SCC(=O)NC1CCCC1`, for which the EC50 in test [2] is recorded as > 50 µM (not active).
The term AC50 denotes the midpoint of the concentration-response curve, whichever way the signal moves. For `CCN(Cc1ccc(OC)c(F)c1)C(=O)CCl`, the AC50 was 162 µM (active) in [3] and 3.36 µM (active) in [4]. Moreover, on Protein RecA, the EC50 was 5.37 µM (active).
Take `CCN1CCN(c2nc(-c3cccnc3)nc3ccccc23)CC1`: the EC50 in test [2] is given as > 50 µM (not active).
`CCOC(=O)c1cc(NC(=O)c2ccoc2C)cc(C(=O)OCC)c1`: the half-maximal inhibitory concentration (IC50) in test [1] was 14.5 µM (active).
Consider `CCOC(=O)C1(c2ccccc2)CCN(CCC(=O)Nc2ccccc2OC)CC1`, for which the EC50 in test [5] is 1.88 µM (active).
In the case of `Cc1ccc2c(c1)[C@H]1OCC[C@H]1[C@@H](c1ccncc1)N2`, in test [2], the EC50 is > 10 µM (not active).
As to `CN1CCN(C(=O)CCCN2C(=O)/C(=C/c3ccccc3)SC2=S)CC1`, in test [1], the IC50 is 13.5 µM (active).
For `COc1ccc2c(c1O)[C@]13CCN(C)[C@H](C2)[C@@H]1CCC(=O)C3`, in test [5], the EC50 was 0.0427 µM (active).
Broadly, the CC50 is the concentration that lowers cell viability or growth by half. In the case of `Cc1onc(-c2ccccc2)c1C(=O)NNC(=S)NC(=O)c1ccc(Cl)cc1Cl`, the EC50 in test [5] was 1.88 µM (active); in test [7], 441 nM (active); in the test on Streptococcus, 1.8 µM (active). The CC50 in the test with Vero [6] is > 25 µM (active). The IC50 with Vero [8] was 22.7 µM (active).
